# Laboratory results: patent US20140314697A1, “Method for Inhibiting Inflammation and Reducing Melanophilin Expression with Glycine Derivatives And the Composition Thereof” (CORUM INC., priority 2013, published 2014)
# What was measured:
# [1] = system: Mlph (melanophilin) protein in B16-F10 cells; assay: Reduction of melanophilin expression on translational level (western blot); type: cell-based, Murine; conditions: B16-F10 w/FSK; for Mlph protein expression level, Average / Mlph protein expression level, Entry 1 / Mlph protein expression level, Entry 2 / Mlph protein expression level, Entry 3: about 48 hours, Positive Control 100%
# Procedure: Murine melanoma cell line B16-F10 (BCRC No. 60031)
# Complete Medium (as negative control): DMEM with 10% Fetal Bovine Serum
# Testing Medium (as positive control): 20 μM forskolin (FSK) in Complete Medium
# a. Rinse the confluent B16-F10 cells with sterile D-PBS then trypsinize all cells and perform cell counting.
# b. Seeding 2.5E+05 cells per 6-cm dish.
# c. Incubate B16F10 cells at 37° C., 5% CO2 for about 24 hours.
# d. Prepared 0.5%/0.25%/0.125% testing material in Testing Medium.
# e. Discard the medium and add 3 mL controls and testing material into B16-F10 cells in 6-cm dish.
# f. Incubate B16-F10 cells at 37° C., 5% CO2 for about 48 hour.
# g. After incubating for about 48 hours, discard the supernatant and wash the B16-F10 cells with sterile D-PBS.
# h. Mlph protein expression is measured by western blot. Western blot conditions: • Loading protein amount: 40 μg/well • Protein transfer by Semi-dry Transfer Apparatus • Immunoblot with Primary Ab (1:250 dilution) at 4° C. overnight • Incubate with secondary Ab (1:5000 dilution) at room temperature for 1 hour • Detection was performed with the ECL system • Relative quantification of protein expression was measured by IMAGEJ free software). β-actin was used as the internal control for normalization • Data Analysis: […]
# [2] = system: skin color (hyper pigmentation); assay: Skin whitening test: skin color changes (L* value), Minolta chromameter; type: in vivo, human; conditions: for Hyper pigmentation Reduction - Skin Color Data, Max % Improvement / Hyper pigmentation Reduction - Skin Color Data, % Difference: 0.2% Ac-Gly-β-Ala sample; for Hyper pigmentation Reduction - Skin Color Data, % Difference: L* value
# Procedure: In this example, the in-vivo skin test is finished by AMA Laboratories USA. The skin color changes are evaluated with Minolta chromameter color computer system. The Age spot photography is evaluated with Reverse Photo Engineering Quantitative Analysis.
# In terms of skin color changes, the participants were women aged 25-48 years old, wherein nine of the participants were caucasian, and one was Asian. The participants were tested before (baseline), and after using 14, 28, 56 days with Minolta chromameter color computer system to perform the skin color change evaluation. And the samples used for the skin color change evaluation is 0.2% Ac-Gly-β-Ala.
# [3] = system: Mouse IL-6 secretion, RAW264.7; assay: Mouse IL-6 production in Raw264.7 cells (ELISA); type: cell-based; conditions: for Mouse IL-6 Content, Average / Mouse IL-6 Content, Entry 2 / Mouse IL-6 Content, Entry 3 / Mouse IL-6 Content, Entry 1: Raw264.7, LPS & IFN-r, 24 hours, Positive Control 100%; for Mouse IL-6 Content, Entry 2: passage N + 3; for Mouse IL-6 Content, Entry 3: passage N + 6; for Mouse IL-6 Content, Entry 1: passage N + 7
# Procedure: (§1) Murine macrophage cell line RAW264.7 (BCRC No. 60001)
# (§2) Complete Medium (as negative control): DMEM medium with 10% Fetal Bovine Serum
# (§3) Testing Medium (as positive control): 100 ng/mL LPS and 10 ng/mL IFN-r in Complete Medium
# (§4) a. Rinse the confluent Raw264.7 cells with sterile D-PBS then trypsinize all cells and perform cell counting.
# (§5) b. Dilute the cell density to 2E+05/mL and seed 0.1 mL cell liquid (equals to 2E+04 cells) each well in 96-well plate.
# (§6) c. Incubate Raw264.7 cells at 37° C., 5% CO2 for about 24 hours.
# (§7) d. Prepared 2× dosing solution of testing material in 2× Testing Medium (means w/ 200 ng/mL ? LPS&20 ng/mL ? IFN-r): 0.8%, 0.4%, 0.2%, 0.1% (Final testing material: 0.4%, 0.2%, 0.1%, 0.05%)
# (§8) e. […] Add 100 μL controls and testing materials in different concentrations into Raw264.7 cells in 96 well plates. Controls/Test materials should be tested at least three wells.
# (§9) f. Incubate Raw264.7 cells at 37° C., 5% CO2 for about 24 hours.
# (§10) g. After incubating for about 24 hours, collect the supernatant of controls and testing materials.
# (§11) h. Determine the IL-6/MIP-2 content of the supernatant by R&D ELISA kit as mentioned previously.
# [4] = system: Mouse MIP-2 secretion, RAW264.7; assay: Mouse MIP-2 production in Raw264.7 cells (ELISA); type: cell-based; conditions: for Mouse MIP-2 Content, Average / Mouse MIP-2 Content, Entry 2 / Mouse MIP-2 Content, Entry 1 / Mouse MIP-2 Content, Entry 3: Raw264.7, LPS & IFN-r, 24 hours, Positive Control 100%; for Mouse MIP-2 Content, Entry 2: passage N + 3; for Mouse MIP-2 Content, Entry 1: passage N + 5; for Mouse MIP-2 Content, Entry 3: passage N + 6
# Procedure: as §1, §2, §3, §4, §5, §6, §7, §8, §9, §10, §11
# [5] = system: NHEK cells; assay: Cell viability on NHEK; type: cell-based, Human; conditions: for cell viability on NHEK, Average / cell viability on NHEK, Entry 1 / cell viability on NHEK, Entry 2 / cell viability on NHEK, Entry 3: 40 mJ/cm^2 UVB, Positive Control 100%; for cell viability on NHEK, Entry 1: passage 2 + 2; for cell viability on NHEK, Entry 2 / cell viability on NHEK, Entry 3: passage 2 + 3
# Procedure: 4.4. Cell Viability is Tested by Neutral Red Uptake Experience or MTT Assay.
smiles,measurement,setting,value
"CC(=O)NCC(=O)NCCC(=O)O [Ac-Gly-β-Ala, 3-(2-acetylamino-acetylamino)-propionic acid]","Mlph protein expression level, Average",[1]; 0.125%,71.3%
same,"Mlph protein expression level, Entry 1",[1]; 0.125%,66.8%
same,"Mlph protein expression level, Entry 2",[1]; 0.125%,65.7%
same,"Mlph protein expression level, Entry 3",[1]; 0.125%,81.2%
same,"Mlph protein expression level, Average",[1]; 0.25%,62.0%
same,"Mlph protein expression level, Entry 1",[1]; 0.25%,49.4%
same,"Mlph protein expression level, Entry 2",[1]; 0.25%,12.8%
same,"Mlph protein expression level, Entry 3",[1]; 0.25%,123.8%
same,"Mlph protein expression level, Average",[1]; 0.5%,24.3%
same,"Mlph protein expression level, Entry 1",[1]; 0.5%,36.5%
same,"Mlph protein expression level, Entry 2",[1]; 0.5%,10.6%
same,"Mlph protein expression level, Entry 3",[1]; 0.5%,25.8%
same,effect on Mlph in translational (protein) level,[1],inhibitory effect
same,"Hyper pigmentation Reduction - Skin Color Data, Max % Improvement",[2]; Day 14,62.84%
same,"Hyper pigmentation Reduction - Skin Color Data, % Difference",[2]; Day 14 vs baseline,26.90%*
same,"Hyper pigmentation Reduction - Skin Color Data, Max % Improvement",[2]; Day 28,87.34%
same,"Hyper pigmentation Reduction - Skin Color Data, % Difference",[2]; Day 28 vs baseline,41.07%*
same,"Hyper pigmentation Reduction - Skin Color Data, Max % Improvement",[2]; Day 56,87.97%
same,"Hyper pigmentation Reduction - Skin Color Data, % Difference",[2]; Day 56 vs baseline,41.64%*
same,L* value of skin,[2]; test sample with 0.2% Ac-Gly-β-Ala,can increase the L* value of skin
same,"IL-6 production, dose dependence","[3]; 0.05%-0.4%, Raw264.7",dose-dependently inhibited
same,"Mouse IL-6 Content, Average",[3]; 0.05%,97%
same,"Mouse IL-6 Content, Entry 2",[3]; 0.05%,105%
same,"Mouse IL-6 Content, Entry 3",[3]; 0.05%,95%
same,"Mouse IL-6 Content, Entry 1",[3]; 0.05%,91%
same,"Mouse IL-6 Content, Average",[3]; 0.10%,86%
same,"Mouse IL-6 Content, Entry 2",[3]; 0.10%,96%
same,"Mouse IL-6 Content, Entry 3",[3]; 0.10%,78%
same,"Mouse IL-6 Content, Entry 1",[3]; 0.10%,85%
same,"Mouse IL-6 Content, Average",[3]; 0.20%,54%
same,"Mouse IL-6 Content, Entry 2",[3]; 0.20%,58%
same,"Mouse IL-6 Content, Entry 3",[3]; 0.20%,42%
same,"Mouse IL-6 Content, Entry 1",[3]; 0.20%,64%
same,"Mouse IL-6 Content, Average",[3]; 0.40%,34%
same,"Mouse IL-6 Content, Entry 2",[3]; 0.40%,40%
same,"Mouse IL-6 Content, Entry 3",[3]; 0.40%,40%
same,"Mouse IL-6 Content, Entry 1",[3]; 0.40%,24%
same,"MIP-2 production, dose dependence","[4]; 0.05%-0.4%, Raw264.7",inhibited MIP-2 production in dose-dependent manner
same,"Mouse MIP-2 Content, Average",[4]; 0.05%,78%
same,"Mouse MIP-2 Content, Entry 2",[4]; 0.05%,79%
same,"Mouse MIP-2 Content, Entry 1",[4]; 0.05%,75%
same,"Mouse MIP-2 Content, Entry 3",[4]; 0.05%,81%
same,"Mouse MIP-2 Content, Average",[4]; 0.10%,65%
same,"Mouse MIP-2 Content, Entry 2",[4]; 0.10%,66%
same,"Mouse MIP-2 Content, Entry 1",[4]; 0.10%,64%
same,"Mouse MIP-2 Content, Entry 3",[4]; 0.10%,65%
same,"Mouse MIP-2 Content, Average",[4]; 0.20%,48%
same,"Mouse MIP-2 Content, Entry 2",[4]; 0.20%,44%
same,"Mouse MIP-2 Content, Entry 1",[4]; 0.20%,50%
same,"Mouse MIP-2 Content, Entry 3",[4]; 0.20%,48%
same,"Mouse MIP-2 Content, Average",[4]; 0.40%,31%
same,"Mouse MIP-2 Content, Entry 2",[4]; 0.40%,32%
same,"Mouse MIP-2 Content, Entry 1",[4]; 0.40%,21%
same,"Mouse MIP-2 Content, Entry 3",[4]; 0.40%,38%
same,"cell viability on NHEK, Average",[5]; 0.01%,80%
same,"cell viability on NHEK, Entry 1",[5]; 0.01%,80%
same,"cell viability on NHEK, Entry 2",[5]; 0.01%,82%
same,"cell viability on NHEK, Entry 3",[5]; 0.01%,76%
same,"cell viability on NHEK, Average",[5]; 0.03%,84%
same,"cell viability on NHEK, Entry 1",[5]; 0.03%,88%
same,"cell viability on NHEK, Entry 2",[5]; 0.03%,80%
same,"cell viability on NHEK, Entry 3",[5]; 0.03%,83%
same,"cell viability on NHEK, Average",[5]; 0.05%,93%
same,"cell viability on NHEK, Entry 1",[5]; 0.05%,93%
same,"cell viability on NHEK, Entry 2",[5]; 0.05%,90%
same,"cell viability on NHEK, Entry 3",[5]; 0.05%,95%
same,"cell viability on NHEK, Average",[5]; 0.10%,108%
same,"cell viability on NHEK, Entry 1",[5]; 0.10%,109%
same,"cell viability on NHEK, Entry 2",[5]; 0.10%,103%
same,"cell viability on NHEK, Entry 3",[5]; 0.10%,110%
same,"cell viability on NHEK, Average",[5]; 0.20%,109%
same,"cell viability on NHEK, Entry 1",[5]; 0.20%,106%
same,"cell viability on NHEK, Entry 2",[5]; 0.20%,107%
same,"cell viability on NHEK, Entry 3",[5]; 0.20%,113%
same,"cell viability on NHEK, Average",[5]; 0.40%,93%
same,"cell viability on NHEK, Entry 1",[5]; 0.40%,106%
same,"cell viability on NHEK, Entry 2",[5]; 0.40%,95%
same,"cell viability on NHEK, Entry 3",[5]; 0.40%,79%
same,Cell viability,"[5]; NHEK, all of dosing solution",higher than 80%
